Series [1] deals with AR42J tumor-bearing mice. The following applies: 2 h p.i., 1.0 nmol/mouse, ref Borgna et al., 2021 [11], cited from earlier work.
Another series can be described thus: in vivo. The note with it: mouse, iv, total radioactivity.
A short description of series [2]: Early side effects: blood plasma chemistry. The class given is in vivo, mice. The following applies: endpoint of the therapy.
The subject of series [3] is AR42J tumor-bearing mice. As to the kind of experiment: Therapy study, therapeutic efficacy. The following applies: for tumor growth delay: day 0 and day 7; for Time frame of euthanasia: end of study day 49.
Experimental: The therapy study was initiated with mice randomly assigned to five groups (n = 6) when the AR42J tumors reached an average volume of 99 ± 16 mm^3. […] The endpoint criteria were defined according to a scoring system which required euthanasia of mice with a score ≥ 3 (Supplementary Material).
For the subsequent phase, in which the tumors started to regrow, the doubling time of the tumor volume was calculated based on the fitted exponential tumor growth curve. The average ± SD of tumor growth delay and of the doubling time of the tumor volume in single mice, respectively, were compared among groups with a one-way ANOVA with Tukey’s multiple comparisons post-test. The survival times of mice were presented by Kaplan–Meier curves and analyzed using a log-rank test (Mantel-Cox).
Definition of tumor volume (V) and relative tumor volume (RTV): The tumor dimension was determined by measuring the longest tumor axis (L) and its perpendicular axis (W) with a digital caliper. The tumor volume (TV) was calculated according to the equation [V = 0.5 × (L × W^2)]. The relative tumor volume (RTV) was defined as [TVx/TV0], where TVx is the tumor volume in mm^3 at a given Day x and TV0 the tumor volume in mm^3 at Day 0.
Scoring system: Endpoint criteria were defined using a scoring system which required euthanasia of mice with a score ≥3. Every second day, the following criteria were assessed in the mice, assigning a score from 0–3 for each criterion: (i) appearance (general status, skin color, etc.), (ii) behavior (vitality, sociality, crouching etc.), (iii) body weight (stable, loss >5 ≤10%, loss >10 <15%, loss ≥ 15% compared to initial body weight), (iv) tumor size (<800 mm^3, ≥800 and <900 mm^3, ≥900 and <1000 mm^3, ≥1000 mm^3), (v) tumor ulceration. A score ≥3 was for example due to: (i) appearance of wrinkled, translucent skin, (ii) mouse in crouching position and/or apathetic, (iii) a body weight loss of ≥15% of initial body weight, (iv) a tumor volume of ≥1000 mm^3, (iii/iv) a combination of a tumor size of ≥800 mm^3 and body weight loss of ≥10% and/or (v) ulceration of the tumor.
Series [4] is described as follows: Early side effects: relative body weight, organ masses and mass ratios. Format: in vivo, mice. The note with it: at euthanasia. From the text:
At the same time, relevant organs and tissues were collected, and the masses were put into relation to the brain mass of the respective mouse in order to allow the comparison of organ-to-brain and organ-to-body weight ratios among the single treatment groups (Supplementary Material).
Definition of relative body weight (RBW): The RBW was defined as [BWx/ BW0], where BWx is the body weight in gram at a given Day x and BW0 the body weight in gram at Day 0.

For the next series, the system named is metastatic NENs. The following applies: human, in vivo; cited from earlier work.

“And” between values parts separate entries of the source, which are not always exact repeats. Identical values can stand only once. Like-named read-outs stand apart in the source and are kept apart here. Where a SMILES comes first, the peptide text is derived from it. Bridges are numbered along the chain shown (N, C = ends). [ ]: non-standard residue; d: D form. The star is where a group is joined. DOTA = O=C(O)CN1CCN(CC(=O)O)CCN(CC(=O)*)CCN(CC(=O)O)CC1; dPhe(4-NHCONH2) = NC(=O)Nc1ccc(C[C@@H](N)C(=O)O)cc1; Phe(4-Cl) = N[C@@H](Cc1ccc(Cl)cc1)C(=O)O

Turning to `C[C@@H](O)[C@@H]1NC(=O)[C@H](CCCCN)NC(=O)[C@@H](Cc2ccc(NC(N)=O)cc2)NC(=O)[C@H](Cc2ccc(O)cc2)NC(=O)[C@H](NC(=O)[C@H](Cc2ccc(Cl)cc2)NC(=O)CN2CCN(CC(=O)O)CCN(CC(=O)O)CCN(CC(=O)O)CC2)CSSC[C@@H](C(=O)N[C@H](Cc2ccc(O)cc2)C(N)=O)NC1=O` [DOTA-LM3], the AR42J tumor uptake in the series with AR42J tumor-bearing mice [1] (listed as [^161Tb]Tb/[^177Lu]Lu-DOTA-LM3) is reported as ~ 18 % IA/g.

A word on the tissue uptake: it is the percentage of the injected dose found per gram of tissue. `C[C@@H](O)[C@@H]1NC(=O)[C@H](CCCCN)NC(=O)[C@@H](Cc2c[nH]c3ccccc23)NC(=O)[C@H](Cc2ccc(O)cc2)NC(=O)[C@@H](NC(=O)[C@@H](Cc2ccccc2)NC(=O)CN2CCN(CC(=O)O)CCN(CC(=O)O)CCN(CC(=O)O)CC2)CSSC[C@@H](C(=O)N[C@H](CO)[C@@H](C)O)NC1=O` [DOTATOC, DOTA-[Tyr^3]-octreotide]: the AR42J tumor uptake with AR42J tumor-bearing mice [1] (listed as [^161Tb]Tb-/[^177Lu]Lu-DOTATOC) is listed as ~ 8 % IA/g. Also, the tissue uptake at 2 h in the series “in vivo” (AR42J tumor, 0.04 nmol/mouse) was around 17 %ID/g; in the series “in vivo” (AR42J tumor, 0.2 nmol/mouse) it was around 15 %ID/g; in the series “in vivo” (liver), around 0.2 %ID/g.

Consider `C[C@@H](O)[C@@H]1NC(=O)[C@H](CCCCN)NC(=O)[C@@H](Cc2c[nH]c3ccccc23)NC(=O)[C@H](Cc2ccc(O)cc2)NC(=O)[C@@H](NC(=O)[C@@H](Cc2ccccc2)NC(=O)CN2CCN(CC(=O)O)CCN(CC(=O)O)CCN(CC(=O)O)CC2)CSSC[C@@H](C(=O)N[C@H](CO)[C@@H](C)O)NC1=O` [[^161Tb]Tb-DOTATOC] [metal not drawn], for which, in the series with AR42J tumor-bearing mice [1], the AR42J tumor uptake is given as 8.2 ± 0.2 % IA/g, the Adrenals uptake is 0.25 ± 0.06 % IA/g, the Blood uptake is at most 0.10 % IA/g and the Femur uptake is reported as at most 0.10 % IA/g. Moreover, in the series on AR42J tumor-bearing mice [1], the Heart uptake is at most 0.10 % IA/g, the Intestines uptake was 0.21 ± 0.13 % IA/g, the Kidneys uptake was 9.9 ± 1.3 % IA/g and the Liver uptake was 0.17 ± 0.01 % IA/g. In addition, in the series with AR42J tumor-bearing mice [1], the Lung uptake is 0.27 ± 0.03 % IA/g, the Muscle uptake is given as at most 0.10 % IA/g, the Pancreas uptake is recorded as 0.71 ± 0.07 % IA/g and the Spleen uptake is on record as 0.11 ± 0.02 % IA/g. Besides, the Stomach uptake with AR42J tumor-bearing mice [1] is 0.74 ± 0.38 % IA/g. Also, in series [2], the ALB is listed as 23 ± 2 g/L, the ALP is on record as 76 ± 21 U/L, the BUN turned out to be 5.8 ± 1.0 mmol/L and the CRE is <18 (n=6) µmol/L. In series [2], the TBIL was < 3 µmol/L and 4 ± 1 µmol/L. Besides, in the series on AR42J tumor-bearing mice [3] (2 × 10 MBq, 0.2 nmol), the tumor growth delay amounted to 9.0 ± 5.5 days and the “Time frame of euthanasia” value fell in the range of 20 to 26 days. The compound also had a Median survival in the series with AR42J tumor-bearing mice [3] (mouse, in vivo) of 21 days. Further, in series [4], the “Organ mass Brain” value came out at 440 ± 23 mg, the “Organ mass Kidneys” value was determined as 352 ± 27 mg, the “Organ mass Liver” value came to 1195 ± 57 mg and the “Organ mass Spleen” value was 86 ± 19 mg.

For the compound `C[C@@H](O)[C@@H]1NC(=O)[C@H](CCCCN)NC(=O)[C@@H](Cc2ccc(NC(N)=O)cc2)NC(=O)[C@H](Cc2ccc(O)cc2)NC(=O)[C@H](NC(=O)[C@H](Cc2ccc(Cl)cc2)NC(=O)CN2CCN(CC(=O)O)CCN(CC(=O)O)CCN(CC(=O)O)CC2)CSSC[C@@H](C(=O)N[C@H](Cc2ccc(O)cc2)C(N)=O)NC1=O` [[^177Lu]Lu-DOTA-LM3] [metal not drawn] ({DOTA}-[Phe(4-Cl)][dC]Y[dPhe(4-NHCONH2)]KTC[dY]-NH2; disulfide 2-7 (inferred); C-terminus assumed), in the series with metastatic NENs, the tolerability in patients result is “well tolerated” and the “tumor doses compared to [177Lu]Lu-DOTATOC” value was “higher tumor doses”. Besides, in series [2], the ALB stood at 23 ± 1 g/L; the ALP is 66 ± 5 U/L; the BUN was 8.2 ± 1.9 mmol/L and 8.2 ± 1.8 mmol/L; the CRE was < 18 µmol/L and 19 µmol/L. Also, the TBIL in series [2] is < 3 µmol/L and 4 ± 1 µmol/L. Moreover, the tumor growth delay in the series with AR42J tumor-bearing mice [3] (2 × 10 MBq, 0.2 nmol) amounted to 35 ± 7 days. In addition, in the series on AR42J tumor-bearing mice [3] (after the growth delay), the “mice with exponential tumor regrowth” value is recorded as 5 out of 6. In the series on AR42J tumor-bearing mice [3] (mouse, in vivo), the Median survival amounted to 48.5 days and the “mice surviving until the end of the study” value is “three out of six mice”. The “doubling time of the tumor volume” value in the series on AR42J tumor-bearing mice [3] (regrowth phase, 2 × 10 MBq, 0.2 nmol) came to 3.8 ± 1.1 days. Further, in series [4], the “Organ mass Brain” value is 471 ± 30 mg, the “Organ mass Kidneys” value worked out at 336 ± 13 mg, the “Organ mass Liver” value is recorded as 1254 ± 106 mg and the “Organ mass Spleen” value is 92 ± 17 mg.

In the case of `C[C@@H](O)[C@@H]1NC(=O)[C@H](CCCCN)NC(=O)[C@@H](Cc2c[nH]c3ccccc23)NC(=O)[C@H](Cc2ccc(O)cc2)NC(=O)[C@@H](NC(=O)[C@@H](Cc2ccccc2)NC(=O)CN2CCN(CC(=O)O)CCN(CC(=O)O)CCN(CC(=O)O)CC2)CSSC[C@@H](C(=O)N[C@H](CO)[C@@H](C)O)NC1=O` [[^177Lu]Lu-DOTATOC] [metal not drawn], in the series with AR42J tumor-bearing mice [1], the AR42J tumor uptake was 8.9 ± 1.5 % IA/g, the Adrenals uptake is given as 0.28 ± 0.08 % IA/g, the Blood uptake is on record as at most 0.10 % IA/g and the Femur uptake is on record as at most 0.10 % IA/g. In addition, in the series with AR42J tumor-bearing mice [1], the Heart uptake was at most 0.10 % IA/g, the Intestines uptake was 0.20 ± 0.05 % IA/g, the Kidneys uptake is listed as 11 ± 1 % IA/g and the Liver uptake is on record as 0.26 ± 0.07 % IA/g. Moreover, in the series on AR42J tumor-bearing mice [1], the Lung uptake is given as 0.37 ± 0.06 % IA/g, the Muscle uptake is recorded as at most 0.10 % IA/g, the Pancreas uptake is 0.80 ± 0.13 % IA/g and the Spleen uptake is 0.15 ± 0.03 % IA/g. The Stomach uptake with AR42J tumor-bearing mice [1] is recorded as 0.65 ± 0.11 % IA/g. In addition, in series [2], the ALB is 24 ± 5 g/L, the ALP is listed as 77 ± 8 U/L, the BUN stood at 6.3 ± 0.9 mmol/L and the CRE is on record as <18 (n=5) µmol/L. Besides, in series [2], the TBIL was < 3 µmol/L and 4 ± 1 µmol/L. In the series on AR42J tumor-bearing mice [3] (2 × 10 MBq, 0.2 nmol), the tumor growth delay is 6.0 ± 4.4 days and 6 ± 4 days; the “Time frame of euthanasia” value lay within 12 to 22 days. This compound also registered a Median survival with AR42J tumor-bearing mice [3] (mouse, in vivo) of 19.5 days. Also, in series [4], the “Organ mass Brain” value is 453 ± 31 mg, the “Organ mass Kidneys” value turned out to be 342 ± 23 mg, the “Organ mass Liver” value was determined as 1121 ± 123 mg and the “Organ mass Spleen” value was 90 ± 17 mg.

The values above are taken from PMC8921065, “Combination of terbium-161 with somatostatin receptor antagonists—a potential paradigm shift for the treatment of neuroendocrine neoplasms” (European Journal of Nuclear Medicine and Molecular Imaging, 2021).
